Reference: US11058772B2, “(Bacterio)chlorophyll photosensitizers for treatment of eye diseases and disorders” (Yeda Research and Development Co. Ltd., priority 2011, dated 2021)
Entries after “also recorded” stand apart in the source; their conditions may differ.

Tests used:
rabbit cornea [1] = experiment: Ex-vivo ESR measurements of rabbit corneas; details: cornea strips, 4-POBN 65 mM, ethanol 8%
Description: All ESR measurements were carried out using a Magnettech ESR Miniscope MS 100 Spectrometer (Germany), with a Microwave X-band Bridge. The ESR spectrometer operates at 9.3-9.55 GHz, 20 mW microwave power. ESR measurements were carried out at room temperature in glass capillaries or flat cells. Eyes of rabbits were enucleated post mortem. The corneas were de-epithelialized mechanically and corneal strips, 5 mm in width, were cut with a self-constructed double-blade cutter. The strips were immediately immersed for 30 min in solutions containing 4-POBN (65 mM) and ethanol (8%), and either Bchl-S or RF-D. Next, the strips were washed with saline and put in the flat-cells (0.5×5 mm^3) for NIR/UVA illumination followed by ESR measurements with the aforementioned Miniscope.

[2] = ESR spin trapping (4-POBN) of reactive oxygen species in aqueous solution; format: physicochemical; details: NIR (WST11) or UVA (RF) irradiation
Description: All ESR measurements were carried out using a Magnettech ESR Miniscope MS 100 Spectrometer (Germany), with a Microwave X-band Bridge. The ESR spectrometer operates at 9.3-9.55 GHz, 20 mW microwave power. ESR measurements were carried out at room temperature in glass capillaries or flat cells. […] To each solution, the spin-trap α-(4-pyridyl N-oxide)-N-tert-butylnitrone (4-POBN, 65 mM) and ethanol (8%) were added. Controls contained illuminated 4-POBN in saline with/without dextran, and non-illuminated Bchl-S, Bchl-D, RF and RF-D solutions with/without 4-POBN.

rabbit cornea [3] = experiment: Penetration depth in cornea from aqueous 65% sucrose solution; format: in vivo; details: 2.5 mg/ml in aqueous 65% sucrose
Description: Eyes of rabbits were enucleated and deepithelialised mechanically post mortem. The eyes were exposed to Bchl-S solution using an eye cap for 5, 10, and 30 minutes and to Bchl-D solution for 10 and 30 min, in darkness. Controls: untreated eyes, and one eye treated with dextran-500 only for 30 min in darkness. Following this pretreatment, the corneas were briefly rinsed with saline and the central 8-mm buttons were trephined, removed, wrapped in aluminum foil and frozen on dry ice until further use. Central serial corneal sagittal slices (12 μm) were cut with a cryomicrotome, mounted on a microscope glass slide and stored frozen in −70° C. until use. For measurement of fluorescence, the individual slices were placed on the microscope base and a photographic record was immediately taken. Fluorescence intensity of Bchl-S or Bchl-D treated corneas from 3 serial cryo sections was recorded at 760 nm, upon excitation at 740 nm, using a fluorescence microscope (BX61 Olympus, Japan) equipped with CCD camera (Cascade 512B, Roper Sci., USA) and a long pass filter of above 760 nm. The digital data was analyzed, using ImageJ software (NIH, USA). […]

[4] = system: rabbit cornea keratocytes; experiment: Staining for apoptosis (TUNEL assay); format: in vivo; details: one day postoperatively
Description: For apoptosis detection, rabbits were euthanized one day post Bchl-S or Bchl-D treatment. Their corneas were removed, fixated in 4% formaldehyde and embedded in paraffin. […] central sections were prepared from the corneas, placed on microscope slides and deparaffinized. Peroxidase-based terminal deoxyribonucleotidyl transferase-mediated dUTP-digoxigenin nick and labeling (TUNEL) assay was performed according to the manufacturer's instructions (Apop-Tag assay, Chemicon, Merck Millipore, Darmstadt, Germany).

rabbit cornea [5] = experiment: Stress-strain measurements of ex-vivo treated corneas; details: for Mean Young's Modulus Intensity / Mean ultimate stress Intensity: 30 min incubation then 30 min illumination (NIR for WST11, UVA for RF-D); for Mean Young's Modulus Intensity / Mean ultimate stress Intensity / Mean Young's Modulus Increase % / Mean ultimate stress Increase %: dipotassium salt; for Mean Young's Modulus Increase % / Mean ultimate stress Increase %: 30 min incubation, 30 min NIR, vs untreated fellow eyes
Description: Eyes of rabbits (15-16 weeks old, weighting 3-4 Kg) were enucleated post mortem. Before enucleation, the 12 and 6 h position were marked on the sclera for preservation of subsequent cutting orientation. The corneas were de-epithelialized mechanically using a PKR scraper (Becton Dickenson, USA). Usually, about 10 rabbits were assigned to bacteriochlorophyll/NIR treatment, herein the “test group” (for example WST11/NIR), and 2 rabbits were treated by RF/UVA (herein the “RF/UVA group”) for comparison. In the test group, 10 eyes of 10 rabbits were immersed upside down for 30 minutes in test compound saline solution (Bchl-S) followed by NIR illumination (600-900 nm) with a diode laser at 10 mW/cm^2 for 30 minutes. The untreated contralateral eyes served as controls. In the RF/UVA group, RF-D solution was topically applied on 2 eyes of 2 rabbits, every 10 minutes, for 30 minutes, followed by UVA irradiation at 370 nm by a double diode at 3 mW/cm^2, for 30 minutes. After treatment, the corneo-scleral rings were removed and placed on paraffin hemisphere buttons with a matching shape to establish accurate sectioning without tissue stretching. […] The strips included 2 mm of sclera on both ends. Central corneal thickness was measured by ultrasonic pachymetry (Humphrey ultrasonic pachymeter, USA). The corneal strips were then transferred to the biomechanical tester.
The corneal and scleral strips were clamped horizontally, at a distance of 6 mm, between the jaws of a microcomputer-controlled biomaterial tester (Minimat, Germany) with a 200 Newton force cell (FIG. 1). Controlled tightening of screws was performed with a calibrated screwdriver at a preset torque of 9 cN.m (Torqueleader, England). The strain was increased linearly at a rate of 1.0 mm/min and was measured up to tissue rupture. Young's modulus was calculated by the testing machine. Ultimate stress and Young's modulus were expressed in Mega Pascal (MPa) units.
Stress-strain measurements were conducted in 12 rabbits as described in Materials and Methods. Briefly, 10 eyes of 10 rabbits were treated by WST11/NIR, and 2 eyes of 2 rabbits were treated by RF-D/UVA. The contralateral eyes served as control.

- penetration, fraction of the outer stroma (rabbit cornea [3]; 10-min incubation): ⅓
- penetration, fraction of the outer stroma (rabbit cornea [3]; 30-min incubation): ½
Compound: CCC1C2=Cc3c(C)c(C(=O)NCCS(=O)(=O)[O-])c4[n]3[Pd][n]3c(c(C)c(C(C)=O)c3=CC(=N2)C1C)=CC1=NC(=C4CC(=O)OC)C(CCC(=O)[O-])C1C.[K+].[K+] (stereo not drawn) [WST11, Palladium 3^1-oxo-15-methoxycarbonylmethyl-rhodobacteriochlorin 13^1-(2-sulfoethyl)amide dipotassium salt]
- ESR signals of ROS trapped in the treated cornea (rabbit cornea [1]): no traces of singlet oxygen
- singlet oxygen trapping (ESR quartet of 4-POBN) [2]: minimal traces of singlet oxygen
- superoxide and hydroxyl radicals (ESR sextet of 4-POBN) ([2]; dipotassium salt): generate superoxide and hydroxyl radicals; also recorded: superoxide and hydroxyl radical formation
- location of TUNEL-positive keratocytes [4]: outer ½ of anterior stroma
- Mean Young's Modulus Intensity (rabbit cornea [5]): 17.65 ± 8.25 MPa
- Mean ultimate stress Intensity (rabbit cornea [5]): 5.98 ± 2.11 MPa
- Mean Young's Modulus Intensity (rabbit cornea [5]; listed as WST11-S): 17.65 MPa
- Mean ultimate stress Intensity (rabbit cornea [5]; listed as WST11-S): 5.98 MPa
- Mean Young's Modulus Increase % (rabbit cornea [5]): 410%
- Mean ultimate stress Increase % (rabbit cornea [5]): 286%
- Mean Young's Modulus Increase % (rabbit cornea [5]; listed as WST11-S): 369%
- Mean ultimate stress Increase % (rabbit cornea [5]; listed as WST11-S): 267%
- increase in the corneal stiffness (rabbit cornea [5]; 30 min pre-incubation then NIR, vs untreated control eyes): ~3 fold
